{
  "source": "patent US11998600B2",
  "about": "“Enhancing the therapeutic activity of an immune checkpoint inhibitor” (MaineHealth, priority 2015, dated 2024)",
  "key": {"[1]": {"system": "YAP", "assay": "Nuclear YAP in HRMVEC stimulated with soluble peptide, with Src or P38MAPK inhibitor", "assay_type": "cell-based, human", "settings": "inhibitors 10 μM; FIGS. 8E and 8F"}, "[2]": {"system": "P38MAPK", "assay": "P38MAPK phosphorylation in HUVECs attached to collagen peptides, Western blot", "assay_type": "cell-based, human", "settings": "PP2 10 μM vs DMSO; FIG. 7F", "description": "(§1) Endothelial cells (HUVECs or HRMVECs) were incubated in serum free media with 1 mM MgCl2, 0.2 mM MnCl2 in the presence of a Src inhibitor, PP2, (10 μM) a P38MAPK inhibitor, SB202190 (10 μM) or vehicle only (DMSO) for 10 min at 37° C. Treated cells were then seeded on to immobilized P-1 and P-2 and lysates were collected at 15 min.\nWhole cell and CAM tissue lysates were collected in RIPA buffer supplemented with 1× protease inhibitor and 1× phosphatase inhibitor and were run on polyacrylamide gels using denaturing conditions. Prior to loading the gels, 6× sample buffer was added to each of the lysates (final concentration 1×) and boiled for five minutes. Twenty to 50 μg of total protein were loaded into each lane. For detection of proteins larger than 50 kD, 10% gels were used; for proteins smaller than 50 kD 15% gels were used. Gels were run at 60 volts (v) until the dye front passed through the stacking gel, and then the voltage was increased to 100V for the remainder of the separation. Precision Plus protein standards (Bio-Rad) were used to visualize migration. Protein was transferred to nitrocellulose membranes using a wet tank system and blocked for 1 h using 10% non-fat dried milk in tris-buffered saline with 0.01% Tween-20 (TBS-T). […] Western blot bands were quantified using Image J software based on pixel intensity. […]"}, "[3]": {"system": "β3-integrin", "assay": "β3-integrin phosphorylation in endothelial cells attached to collagen peptides, Western blot", "assay_type": "cell-based, human", "settings": "PP2 10 μM vs DMSO; FIG. 7E", "description": "as §1\nWhole cell and CAM tissue lysates were collected in RIPA buffer supplemented with 1× protease inhibitor and 1× phosphatase inhibitor and were run on polyacrylamide gels using denaturing conditions. Prior to loading the gels, 6× sample buffer was added to each of the lysates (final concentration 1×) and boiled for five minutes. Twenty to 50 μg of total protein were loaded into each lane. For detection of proteins larger than 50 kD, 10% gels were used; for proteins smaller than 50 kD 15% gels were used. […] Western blot bands were quantified using Image J software based on pixel intensity.\n(§2) Because both RGD containing peptides bind αvβ3 coupled with the differential effect of these peptides on angiogenesis and inflammation, it was determined whether the RGD peptides differentially altered αvβ3-mediated signaling. […] Therefore, the differential phosphorylation of these protein kinases following the early mechanical-mediated interactions with the RGD containing collagen peptides was assessed. […]"}, "[4]": {"system": "chick chorioallantoic membrane (CAM)", "assay": "Chick CAM angiogenesis assay, induction by RGD collagen peptides", "assay_type": "in vivo", "settings": "inhibitor SB202190 10 μM vs DMSO control; FIG. 6F", "description": "(§3) The chick chorioallantoic membrane (CAM) assays were carried out with some modifications (19). For all experiments CAMs of 10-day-old chick embryos obtained from Charles River (North Franklin, CT) were separated from the shell membrane. Filter discs either non-treated (inflammation assays) pretreated (angiogenesis assays) with cortisone acetate (3.0 mg/ml) containing RPMI only or FGF-2 (40 ng). CAMs were either non-treated or treated topically with Mab XL313, XL166 or a non-specific control antibody (10 μg/embryo every 24 h for three consecutive treatments). […] At the end of the incubation period the embryos were sacrificed and the CAM tissues were analyzed. Angiogenesis was quantified by counting the number of angiogenic branching blood vessels within the area of the filter disc. The angiogenic index was determined by subtracting the mean number of blood vessel branch points from untreated CAMs from each experimental condition. Eight to twelve embryos were used per condition and experiments were repeated at least three times.\nTo examine this possibility, the effects of the RGDKGE (SEQ ID NO. 1) containing collagen peptide on angiogenesis and inflammation in the chick CAM were assessed."}, "[5]": {"system": "chick chorioallantoic membrane (CAM)", "assay": "Chick CAM inflammation assay, FGF-2 induced, antibody treatment", "assay_type": "in vivo", "settings": "chick CAM, FGF-2 stimulated; vs no treatment or control antibody; FIG. 3E", "description": "as §3, with “Eight to twelve embryos were used per condition and experiments were repeated at least three times.” left out\nThe chick CAM has been routinely used to assess inflammation and granulation tissue formation, which are largely dependent on infiltration of chick heterophils (the avian equivalent of neutrophils), macrophages and activated fibroblasts (36,37). To study the potential differential biological impact of RGD epitopes, FGF-2 induced inflammation was examined by carrying out similar experiments in the absence of cortisone acetate and quantifying CAM thickening. […]"}, "[6]": {"system": "HRMVEC", "assay": "Cell proliferation assay, HRMVEC", "assay_type": "cell-based, human", "settings": "peptide 100 ng/ml, 24 hours; FIG. 8D", "description": "(§4) HUVECs (WT, shYAP1 or control transfected) or HRMVECs were plated at 2,000 cells per well with complete EGM-2 media containing 2.0% FBS in the absence or presence of P-1, P-2 or P-C (100 ng/ml) and allowed to grow for 24 hours. Cell growth was monitored using a BrdU or MMT assay kits according to manufacturer's instructions. All assays were completed at least three times in triplicate wells."}, "[7]": {"system": "HUVEC", "assay": "Cell proliferation assay, HUVEC", "assay_type": "cell-based, human", "settings": "peptide 100 ng/ml, 24 hours; FIG. 8C", "description": "as §4"}, "[8]": {"system": "Fak", "assay": "Fak phosphorylation in endothelial cells attached to collagen peptides", "assay_type": "cell-based, human", "settings": "serum free conditions", "description": "Whole cell and CAM tissue lysates were collected in RIPA buffer supplemented with 1× protease inhibitor and 1× phosphatase inhibitor and were run on polyacrylamide gels using denaturing conditions. Prior to loading the gels, 6× sample buffer was added to each of the lysates (final concentration 1×) and boiled for five minutes. Twenty to 50 μg of total protein were loaded into each lane. For detection of proteins larger than 50 kD, 10% gels were used; for proteins smaller than 50 kD 15% gels were used. Gels were run at 60 volts (v) until the dye front passed through the stacking gel, and then the voltage was increased to 100V for the remainder of the separation. Precision Plus protein standards (Bio-Rad) were used to visualize migration. […] Western blot bands were quantified using Image J software based on pixel intensity.\nas §2"}, "[9]": {"system": "chick chorioallantoic membrane (CAM)", "assay": "Chick CAM inflammation assay, induction by RGD collagen peptides", "assay_type": "in vivo", "settings": "chick CAM, no cortisone acetate; FIG. 5D", "description": "as §3\nThe effects of the soluble RGD containing collagen peptides on inflammation were examined."}, "[10]": {"system": "human umbilical vein endothelial cell (HUVEC)", "assay": "Cell adhesion to immobilized RGD collagen peptides, HUVEC", "assay_type": "cell-based", "settings": "peptides immobilized 100 μg/ml; 25 min at 37° C; FIG. 1A", "description": "(§5) RGD peptides (P-1, P-2, P-3, P-4, P-5, and P-C) were immobilized (100 μg/ml) to wells. HUVEC, HMVEC, HRMVEC, and HDF cells were suspended in adhesion buffer (RPMI containing 1 mM MgCl2, 0.2 mM MnCl2 and 0.5% BSA) and 1×10^5 cells were seeded into the wells in the presence or absence of P4C10, LM609, P1F6 or control antibodies (100 μg/ml). Cells were allowed to attach for 25 min at 37° C. Media containing non-attached cells was aspirated and attached cells were washed with PBS and stained with crystal violet. Cell adhesion was quantified by measuring the optical density of eluted dye. Adhesion assays were completed at least three times with triplicate wells."}, "[11]": {"system": "human microvascular endothelial cells (HMVEC)", "assay": "Cell adhesion to immobilized RGD collagen peptides, HMVEC", "assay_type": "cell-based", "settings": "peptides immobilized 100 μg/ml; FIG. 1B", "description": "as §5"}, "[12]": {"system": "human dermal fibroblasts", "assay": "Cell adhesion to immobilized RGD collagen peptides, HDF", "assay_type": "cell-based", "settings": "peptides immobilized 100 μg/ml; FIG. 1D", "description": "as §5"}, "[13]": {"system": "human retinal microvascular endothelial cells (HRMVEC)", "assay": "Cell adhesion to immobilized RGD collagen peptides, HRMVEC", "assay_type": "cell-based", "settings": "peptides immobilized 100 μg/ml; FIG. 1C", "description": "as §5"}, "[14]": {"system": "endothelial cells in which YAP was knocked down", "assay": "Cell proliferation assay, endothelial cells transduced with YAP specific shRNA", "assay_type": "cell-based, human", "settings": "soluble peptide (FIG. 8H) or VEGF 50 ng/ml (FIG. 8I)", "description": "as §4\nRaw cells were transfected with 1 μg of HuSH shRNA plasmids for collagen type I, alpha 2 using Amaxa cell line nucleofector kit V (program #T024). Constructs expressing 21-nucleotide short hairpin RNAs (shRNA) targeting human YAP (shYAP) or non-targeting control (shNT, Sigma-Aldrich, SHC002) were used. Humantargeting shYAP1 lentiviral shRNA was obtained from the Thermo Scientific RNAi consortium (TRCN0000107625). Constructs were packaged into lentivirus, pseudotyped with the vesicular stomatitis virus glycoprotein. Transduction was performed by incubating cells with lentivirus, and stably transduced cells were subsequently used for studies. All cell lines were verified by morphology and mouse and human YAP-specific PCR. […] Endothelial cells were certified mycoplasma-negative by PCR (Lonza), and primary cell cultures were used within the indicated passage numbers. Cells were transduced and selected using puromycin.\nEndothelial cells with YAP specific or non-specific shRNAs were transduced."}},
  "data": [
    {"compound": "CC(C)(C)n1nc(-c2ccc(Cl)cc2)c2c(N)ncnc21", "note": "[PP2, reference compound]", "values": [
      {"measurement": "reduction of nuclear YAP accumulation in P-2 stimulated endothelial cells as compared to control", "setting": "[1]", "value": "approximately 50%"},
      {"measurement": "P38MAPK phosphorylation following binding to collagen peptide P-2, with inhibitor", "setting": "[2]", "value": "reduced"},
      {"measurement": "β3 phosphorylation following binding to collagen peptide P-2, with inhibitor", "setting": "[3]", "value": "reduced"}
    ]},
    {"compound": "Oc1ccc(-c2nc(-c3ccncc3)c(-c3ccc(F)cc3)[nH]2)cc1", "note": "[SB202190, reference compound]", "values": [
      {"measurement": "reduction of nuclear YAP accumulation in P-2 stimulated endothelial cells as compared to control", "setting": "[1]", "value": "approximately 50%"},
      {"measurement": "effect on P-2 induced angiogenesis in the chick CAM", "setting": "[4]", "value": "reduced"}
    ]},
    {"compound": "CC(=O)OCC(=O)[C@@]1(O)CC[C@H]2[C@@H]3CCC4=CC(=O)CC[C@]4(C)[C@H]3C(=O)C[C@@]21C", "note": "[cortisone acetate, reference compound]", "values": [
      {"measurement": "reduction of CAMs exhibiting inflammation (thickening)", "setting": "[5]", "value": "greater than 80%"}
    ]},
    {"compound": "KGDRGDAPG [Mab P-1, Synthetic RGDAPG containing collagen type-I peptide, Colla1 742-750; made with flanking cysteines (…)]", "values": [
      {"measurement": "HRMVEC growth with soluble peptide", "setting": "[6]", "value": "minimal effect"},
      {"measurement": "HUVEC growth with soluble peptide", "setting": "[7]", "value": "minimal effect"},
      {"measurement": "Fak phosphorylation following ligation of peptide", "setting": "[8]", "value": "Minimal Fak phosphorylation"},
      {"measurement": "CAM inflammation following stimulation with peptide", "setting": "[9]", "value": "Minimal evidence of tissue inflammation"}
    ]},
    {"compound": "QGPSGAPGE [P-C, reference compound]", "values": [
      {"measurement": "HUVEC adhesion to immobilized peptides", "setting": "[10]", "value": "failed to support adhesion"},
      {"measurement": "HMVEC adhesion to immobilized peptides", "setting": "[11]", "value": "failed to support interactions"},
      {"measurement": "HDF adhesion to immobilized peptides", "setting": "[12]", "value": "failed to support interactions"},
      {"measurement": "CAM inflammation following stimulation with peptide", "setting": "[9]", "value": "Minimal evidence of tissue inflammation"},
      {"measurement": "HRMVEC adhesion to immobilized peptides", "setting": "[13]", "value": "failed to support interactions"}
    ]},
    {"compound": "RGPRGDQGP [Mab P-5, Synthetic RGD containing collagen type-I peptide, Colla2 819-827 (…)]", "values": [
      {"measurement": "HUVEC adhesion to immobilized peptides", "setting": "[10]", "value": "highest levels of adhesion"}
    ]},
    {"compound": "VEGF", "values": [
      {"measurement": "endothelial cell growth in YAP knock down cells", "setting": "[14]", "value": "enhanced growth"}
    ]}
  ]
}
